# Results reported in ChEMBL document CHEMBL1201862, “PubChem BioAssay data set” (2004).
# The source made the active and inactive calls.
# What was measured:
# [1] = biological target: Transitional endoplasmic reticulum ATPase (Homo sapiens, UniProt P55072, C522A); experiment: C522A mutant p97 ATPase inhibitors, dose response, counter-screen for p97 inhibitor project, biochemical, luminescence (AID 1544)
# NS3 = NS3 (Hepatitis C virus, UniProt A3EZJ3); experiment: PubChem AID 2173; parameters: species or system Hepacivirus hominis
# NS3, sequence (A3EZJ3 whole entry): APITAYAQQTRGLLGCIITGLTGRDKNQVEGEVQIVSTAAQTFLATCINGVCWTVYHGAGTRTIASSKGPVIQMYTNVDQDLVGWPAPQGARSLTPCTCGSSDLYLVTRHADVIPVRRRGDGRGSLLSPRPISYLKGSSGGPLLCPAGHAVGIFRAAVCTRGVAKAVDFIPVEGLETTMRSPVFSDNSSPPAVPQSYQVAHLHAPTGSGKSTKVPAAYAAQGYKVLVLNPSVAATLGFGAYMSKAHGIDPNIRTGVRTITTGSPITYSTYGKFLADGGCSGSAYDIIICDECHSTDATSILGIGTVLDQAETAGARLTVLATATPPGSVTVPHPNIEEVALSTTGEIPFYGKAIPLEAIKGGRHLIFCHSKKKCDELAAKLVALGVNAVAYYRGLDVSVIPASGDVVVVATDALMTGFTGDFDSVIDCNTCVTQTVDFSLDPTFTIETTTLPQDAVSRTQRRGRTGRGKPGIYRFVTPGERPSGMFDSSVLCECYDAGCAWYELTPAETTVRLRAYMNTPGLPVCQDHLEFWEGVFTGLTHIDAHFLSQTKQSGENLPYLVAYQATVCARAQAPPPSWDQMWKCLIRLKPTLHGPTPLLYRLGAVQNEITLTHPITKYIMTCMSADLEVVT
# [2] = biological target: Transitional endoplasmic reticulum ATPase (Homo sapiens, UniProt P55072); experiment: p97 ATPase inhibitors, dose response, biochemical (AID 1534)
# Transitional endoplasmic reticulum ATPase (Homo sapiens, UniProt P55072), sequence (P55072 whole entry): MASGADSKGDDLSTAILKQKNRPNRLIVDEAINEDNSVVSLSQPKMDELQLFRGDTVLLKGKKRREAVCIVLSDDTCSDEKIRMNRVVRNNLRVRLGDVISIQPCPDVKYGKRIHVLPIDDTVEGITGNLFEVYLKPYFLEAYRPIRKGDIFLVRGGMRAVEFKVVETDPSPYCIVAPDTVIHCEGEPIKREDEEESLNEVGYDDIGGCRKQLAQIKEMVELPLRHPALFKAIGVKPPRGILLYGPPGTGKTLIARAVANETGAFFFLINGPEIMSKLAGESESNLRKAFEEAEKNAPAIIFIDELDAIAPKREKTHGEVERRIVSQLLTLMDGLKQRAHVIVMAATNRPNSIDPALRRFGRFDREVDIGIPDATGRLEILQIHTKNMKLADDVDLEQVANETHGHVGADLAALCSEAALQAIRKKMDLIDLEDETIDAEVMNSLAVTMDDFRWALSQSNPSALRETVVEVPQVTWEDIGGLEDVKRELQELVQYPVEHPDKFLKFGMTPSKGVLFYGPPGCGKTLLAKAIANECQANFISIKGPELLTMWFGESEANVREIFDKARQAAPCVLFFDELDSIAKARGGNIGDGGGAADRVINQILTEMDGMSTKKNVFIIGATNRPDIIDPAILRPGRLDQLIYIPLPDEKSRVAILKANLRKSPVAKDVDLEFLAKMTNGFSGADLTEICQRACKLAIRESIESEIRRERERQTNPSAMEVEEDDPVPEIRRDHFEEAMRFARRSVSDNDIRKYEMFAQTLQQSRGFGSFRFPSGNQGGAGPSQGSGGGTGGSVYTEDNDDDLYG
# [3] = biological target: T1, Alkaline phosphatase, tissue-nonspecific isozyme (Homo sapiens, UniProt P05186)
# T1 sequence (P05186 whole entry): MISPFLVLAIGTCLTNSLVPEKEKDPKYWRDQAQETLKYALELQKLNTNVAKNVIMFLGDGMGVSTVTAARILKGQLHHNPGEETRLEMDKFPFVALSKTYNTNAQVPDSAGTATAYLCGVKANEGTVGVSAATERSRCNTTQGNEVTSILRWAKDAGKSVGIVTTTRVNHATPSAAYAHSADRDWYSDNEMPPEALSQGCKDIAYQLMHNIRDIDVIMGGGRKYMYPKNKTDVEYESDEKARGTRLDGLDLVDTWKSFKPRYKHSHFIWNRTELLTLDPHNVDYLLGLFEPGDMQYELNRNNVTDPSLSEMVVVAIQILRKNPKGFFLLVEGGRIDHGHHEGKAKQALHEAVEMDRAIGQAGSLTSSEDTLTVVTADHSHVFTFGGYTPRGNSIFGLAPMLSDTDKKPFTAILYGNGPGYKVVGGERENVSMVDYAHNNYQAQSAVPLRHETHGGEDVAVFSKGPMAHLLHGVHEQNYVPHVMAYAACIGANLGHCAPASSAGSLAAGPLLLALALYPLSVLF
# BJ [4] = experiment: cytotoxicity toward BJ-TERT fibroblasts, dose response, cell-based, RAS-independent, luminescence (AID 1933); format: functional; conditions: Homo sapiens
# BJ [5] = experiment: cells; format: functional, cell-based; conditions: Homo sapiens
# [6] = microbe, parasite or virus in culture; format: functional; conditions: Mycobacterium tuberculosis
# [7] = biological target: T2, Replicative DNA helicase DnaB (Mycobacterium tuberculosis, UniProt P9WMR3); experiment: DnaB intein splicing inhibitors, dose response, biochemical, cell-free fluorescence (AID 449749); format: functional
# T2 sequence (P9WMR3 whole entry): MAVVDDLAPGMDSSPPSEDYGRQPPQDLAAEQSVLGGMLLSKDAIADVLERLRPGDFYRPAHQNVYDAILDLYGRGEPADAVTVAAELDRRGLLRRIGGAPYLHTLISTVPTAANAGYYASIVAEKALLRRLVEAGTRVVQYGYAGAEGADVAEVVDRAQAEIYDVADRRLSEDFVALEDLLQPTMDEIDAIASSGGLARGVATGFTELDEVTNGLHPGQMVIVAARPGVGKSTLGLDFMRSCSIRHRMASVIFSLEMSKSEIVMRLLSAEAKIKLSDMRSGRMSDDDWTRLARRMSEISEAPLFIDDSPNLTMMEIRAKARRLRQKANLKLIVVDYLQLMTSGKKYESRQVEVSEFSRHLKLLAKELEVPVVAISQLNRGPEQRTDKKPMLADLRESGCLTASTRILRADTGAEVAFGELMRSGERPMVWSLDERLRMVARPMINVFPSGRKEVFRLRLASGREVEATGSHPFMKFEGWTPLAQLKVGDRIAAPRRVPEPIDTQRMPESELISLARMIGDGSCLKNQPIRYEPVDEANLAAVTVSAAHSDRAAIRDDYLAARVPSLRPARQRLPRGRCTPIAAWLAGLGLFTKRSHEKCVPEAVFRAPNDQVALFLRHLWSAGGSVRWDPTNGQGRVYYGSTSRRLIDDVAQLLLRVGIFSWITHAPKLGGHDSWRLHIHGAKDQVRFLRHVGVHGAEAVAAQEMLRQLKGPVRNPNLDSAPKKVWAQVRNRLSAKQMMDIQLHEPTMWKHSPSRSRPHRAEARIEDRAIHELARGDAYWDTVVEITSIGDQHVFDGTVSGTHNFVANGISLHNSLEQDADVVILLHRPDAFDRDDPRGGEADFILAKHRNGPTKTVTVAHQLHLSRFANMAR
# Melanocortin receptor 4 = Melanocortin receptor 4 (Homo sapiens, UniProt P32245); experiment: MC4R antagonist potency on cAMP, dose response, cell-based, TR-FRET, biased antagonists (AID 602298); format: functional;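 further: antagonist potency against agonist-stimulated cAMP production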
# Melanocortin receptor 4, sequence (P32245 whole entry): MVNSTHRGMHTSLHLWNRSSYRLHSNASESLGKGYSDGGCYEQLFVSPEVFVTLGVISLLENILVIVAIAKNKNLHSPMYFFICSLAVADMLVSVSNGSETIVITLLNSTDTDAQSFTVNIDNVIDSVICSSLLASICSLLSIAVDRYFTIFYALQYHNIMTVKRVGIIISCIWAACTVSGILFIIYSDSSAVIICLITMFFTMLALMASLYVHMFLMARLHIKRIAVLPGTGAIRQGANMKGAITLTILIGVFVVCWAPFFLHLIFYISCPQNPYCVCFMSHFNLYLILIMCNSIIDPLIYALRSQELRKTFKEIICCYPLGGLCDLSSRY
# [8] = biological target: Sphingosine 1-phosphate receptor 1 (Homo sapiens, UniProt P21453); format: functional;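 further: Tango beta-arrestin reporter U2OS cells stimulated with S1P near its EC80; inhibitor potency meaning antagonism of receptor activation by the natural agonist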
# Sphingosine 1-phosphate receptor 1, sequence (P21453 whole entry): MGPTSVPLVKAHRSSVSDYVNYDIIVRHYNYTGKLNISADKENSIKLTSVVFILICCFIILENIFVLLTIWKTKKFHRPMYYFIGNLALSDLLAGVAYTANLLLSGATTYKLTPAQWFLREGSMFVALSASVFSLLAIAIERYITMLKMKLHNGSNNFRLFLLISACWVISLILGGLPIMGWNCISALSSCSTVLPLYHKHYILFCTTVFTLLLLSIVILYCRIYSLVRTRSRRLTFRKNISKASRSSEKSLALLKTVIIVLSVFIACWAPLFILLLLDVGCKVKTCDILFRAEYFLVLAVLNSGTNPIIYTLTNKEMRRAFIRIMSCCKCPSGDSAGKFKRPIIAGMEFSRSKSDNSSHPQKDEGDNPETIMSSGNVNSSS
# BJ [9] = experiment: cytotoxicity toward BJ-TERT-LT-ST fibroblasts, dose response, cell-based, RAS-independent, luminescence (AID 1935); format: functional; conditions: Homo sapiens;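 further: BJ fibroblasts immortalized with TERT plus LT and ST oncogenes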
# [10] = biological target: T3, Sphingosine 1-phosphate receptor 4 (Homo sapiens, UniProt O95977); experiment: Fluorescence dose response cell-based high throughput screening assay for antagonists of the Sphingosine 1-Phosphate Receptor 4 (S1P4). [Related pubchem assays: 1524 (Confirmation in triplicates.), 1510 (Primary screen.)]; format: functional
# T3 sequence (O95977 whole entry): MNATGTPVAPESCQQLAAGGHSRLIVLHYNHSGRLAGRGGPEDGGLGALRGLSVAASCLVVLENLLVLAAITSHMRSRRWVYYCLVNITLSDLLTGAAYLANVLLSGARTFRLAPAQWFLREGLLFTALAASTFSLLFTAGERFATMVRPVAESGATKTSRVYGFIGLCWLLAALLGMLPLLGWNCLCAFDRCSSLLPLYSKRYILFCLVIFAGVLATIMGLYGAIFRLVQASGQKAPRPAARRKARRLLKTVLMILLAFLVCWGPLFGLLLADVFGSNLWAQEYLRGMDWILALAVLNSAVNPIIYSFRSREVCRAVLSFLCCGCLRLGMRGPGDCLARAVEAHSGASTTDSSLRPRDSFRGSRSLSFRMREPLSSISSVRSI
# [11] = cytotoxicity toward DRD oncogenic fibroblasts, dose response, cell-based, non-viral oncogenic, luminescence (AID 1934); format: functional; conditions: Homo sapiens
# [12] = nonselective inhibitors of cellular cAMP signaling, dose response, counter-screen for MC4R biased antagonist project, cell-based, TR-FRET cAMP detection (AID 602305); format: functional;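 further: U2OS cells stimulated with forskolin near its EC80 as the cAMP inducer; potency is for inhibition of forskolin-stimulated cAMP signaling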
# Protein RecA = biological target: T4, Protein RecA (Mycobacterium tuberculosis, UniProt P9WHJ3); experiment: Fluorescence Cell-Free Homogeneous Dose Retest to Identify Inhibitors of RecA-Intein Splicing Activity. [Related pubchem assays (depositor defined):AID2097, AID2223, AID489010, AID492950]; format: functional
# T4 sequence (P9WHJ3 whole entry): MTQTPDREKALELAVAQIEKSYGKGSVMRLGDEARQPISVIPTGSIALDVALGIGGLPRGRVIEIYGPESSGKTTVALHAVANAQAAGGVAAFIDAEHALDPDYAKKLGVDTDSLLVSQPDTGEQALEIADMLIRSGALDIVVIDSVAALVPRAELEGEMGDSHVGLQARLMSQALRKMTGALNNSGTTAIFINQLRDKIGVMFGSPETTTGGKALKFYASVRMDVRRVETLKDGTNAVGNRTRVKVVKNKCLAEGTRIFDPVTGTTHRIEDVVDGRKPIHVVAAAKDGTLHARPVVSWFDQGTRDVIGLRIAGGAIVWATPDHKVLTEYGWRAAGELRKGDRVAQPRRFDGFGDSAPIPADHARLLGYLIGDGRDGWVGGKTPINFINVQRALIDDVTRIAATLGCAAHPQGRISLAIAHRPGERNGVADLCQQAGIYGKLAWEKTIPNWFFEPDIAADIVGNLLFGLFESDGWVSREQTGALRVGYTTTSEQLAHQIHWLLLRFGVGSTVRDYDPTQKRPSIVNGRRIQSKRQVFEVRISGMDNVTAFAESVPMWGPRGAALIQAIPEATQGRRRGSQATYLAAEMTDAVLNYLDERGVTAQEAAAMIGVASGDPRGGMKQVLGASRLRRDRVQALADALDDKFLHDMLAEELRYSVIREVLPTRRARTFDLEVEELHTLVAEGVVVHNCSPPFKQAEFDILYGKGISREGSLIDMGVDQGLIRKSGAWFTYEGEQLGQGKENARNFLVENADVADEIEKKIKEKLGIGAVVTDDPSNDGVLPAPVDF
# Bcl-2-like protein 10 = Bcl-2-like protein 10 (Homo sapiens, UniProt Q9HD36); experiment: Biochemical TR3 FP assay of Bcl-B inhibitor potency, EC50 (AID 1243); format: functional
# Bcl-2-like protein 10, sequence (Q9HD36 whole entry): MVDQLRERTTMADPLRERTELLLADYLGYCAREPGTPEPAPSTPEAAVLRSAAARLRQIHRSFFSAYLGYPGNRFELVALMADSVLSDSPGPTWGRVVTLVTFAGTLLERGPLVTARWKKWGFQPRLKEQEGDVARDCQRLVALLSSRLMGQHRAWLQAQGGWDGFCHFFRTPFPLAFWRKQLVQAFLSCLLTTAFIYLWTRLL
# [13] = biological target: T5, Neuropeptide Y receptor type 2 (Homo sapiens, UniProt P49146); format: functional, cell-based;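 further: HEK293 cells expressing the receptor and a CNG channel; stimulus was NPY near EC95 followed by isoproterenol to raise cAMP; antagonist potency measured as restoring cAMP signal that NPY suppresses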
# T5 sequence (P49146 whole entry): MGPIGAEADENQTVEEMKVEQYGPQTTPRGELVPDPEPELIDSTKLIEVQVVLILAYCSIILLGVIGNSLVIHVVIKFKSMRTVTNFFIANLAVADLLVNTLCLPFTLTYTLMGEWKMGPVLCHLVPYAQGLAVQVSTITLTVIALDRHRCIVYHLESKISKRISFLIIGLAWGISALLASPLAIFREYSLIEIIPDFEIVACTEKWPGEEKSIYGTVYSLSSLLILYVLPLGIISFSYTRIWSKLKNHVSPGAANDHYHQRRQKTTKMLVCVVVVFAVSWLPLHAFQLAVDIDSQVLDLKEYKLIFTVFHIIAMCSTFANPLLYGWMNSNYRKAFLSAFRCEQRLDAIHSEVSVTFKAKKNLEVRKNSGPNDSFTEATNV
# [14] = biological target: T6, Neuropeptide Y receptor type 1 (Homo sapiens, UniProt P25929); format: functional;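 further: HEK293 cells with a CNG channel challenged with NPY then isoproterenol; potency as antagonist that reverses NPY suppression of cAMP signal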
# T6 sequence (P25929 whole entry): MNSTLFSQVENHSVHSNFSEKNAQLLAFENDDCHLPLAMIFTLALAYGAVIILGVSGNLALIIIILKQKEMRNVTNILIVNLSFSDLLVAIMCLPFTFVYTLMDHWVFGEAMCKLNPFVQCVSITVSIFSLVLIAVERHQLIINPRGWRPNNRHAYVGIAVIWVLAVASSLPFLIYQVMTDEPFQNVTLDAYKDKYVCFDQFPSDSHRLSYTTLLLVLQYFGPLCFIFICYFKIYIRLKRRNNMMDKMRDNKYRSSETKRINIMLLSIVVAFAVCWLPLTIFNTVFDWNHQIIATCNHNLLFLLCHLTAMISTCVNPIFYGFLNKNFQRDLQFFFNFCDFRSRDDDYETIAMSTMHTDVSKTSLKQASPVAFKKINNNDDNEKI
# Transitional endoplasmic reticulum ATPase (Homo sapiens, UniProt P55072, C522A), sequence (P55072 2-806 C522A limits assumed): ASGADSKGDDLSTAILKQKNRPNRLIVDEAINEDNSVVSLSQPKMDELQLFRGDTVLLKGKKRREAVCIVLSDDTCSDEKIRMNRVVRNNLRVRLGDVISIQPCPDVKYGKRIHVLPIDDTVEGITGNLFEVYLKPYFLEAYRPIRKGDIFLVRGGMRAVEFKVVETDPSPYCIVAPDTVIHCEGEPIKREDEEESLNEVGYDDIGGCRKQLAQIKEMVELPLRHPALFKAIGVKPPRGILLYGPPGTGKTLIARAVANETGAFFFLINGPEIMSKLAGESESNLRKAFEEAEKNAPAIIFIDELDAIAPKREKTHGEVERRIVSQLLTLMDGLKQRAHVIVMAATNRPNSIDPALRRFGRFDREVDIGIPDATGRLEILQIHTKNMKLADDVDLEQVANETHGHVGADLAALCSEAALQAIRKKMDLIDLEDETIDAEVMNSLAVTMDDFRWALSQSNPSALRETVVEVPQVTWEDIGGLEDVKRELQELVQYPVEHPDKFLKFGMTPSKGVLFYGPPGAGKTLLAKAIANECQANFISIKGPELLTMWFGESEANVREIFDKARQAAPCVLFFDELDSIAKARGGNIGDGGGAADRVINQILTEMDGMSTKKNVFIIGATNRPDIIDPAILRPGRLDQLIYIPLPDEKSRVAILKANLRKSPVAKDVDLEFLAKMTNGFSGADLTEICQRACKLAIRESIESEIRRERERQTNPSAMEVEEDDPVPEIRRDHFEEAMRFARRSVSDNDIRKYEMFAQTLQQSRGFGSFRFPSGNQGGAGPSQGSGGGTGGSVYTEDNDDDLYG
smiles,measurement,setting,value
O=C(CCl)Nc1nc(-c2ccco2)c(-c2ccco2)s1,IC50,[1],> 50000 nM (not active)
same,IC50,NS3,47800 nM (not active)
same,IC50,[2],> 50000 nM (not active)
CC(C)CN=C(S)NNC(=O)c1ccco1,EC50,[3],73900 nM (not active)
CC(=O)n1cc(N(C(=O)CCl)c2ccc(Cl)cc2)c2ccccc21,EC50,BJ [4],198 nM (active)
same,EC50,BJ [5],2500 nM (inconclusive)
same,CC50,[6],1080 nM (active)
same,AC50,[7],1270 nM (active)
same,IC50,Melanocortin receptor 4,> 64500 nM (inactive)
same,IC50,[8],7320 nM (active)
same,EC50,BJ [9],2670 nM (active)
same,IC50,[10],682 nM (active)
same,EC50,[11],1370 nM (inconclusive)
same,IC50,[12],> 64500 nM (inactive)
same,EC50,Protein RecA,346 nM (active)
O=C(O)c1cccc2c1NC(c1cccc(Cl)c1Cl)C1CC=CC21 (stereo not drawn),EC50,Bcl-2-like protein 10,2670 nM (active)
Cc1ccc(C)c(NS(=O)(=O)c2cc(C(=O)Nc3ccccc3-c3ccccc3)ccc2Cl)c1,IC50,[13],428 nM (active)
same,IC50,[14],> 35000 nM (not active)
